In this experiment the test system is P388 leukemia ip, CD2F1 mice, survival T/C. The experiment can be described thus: NCI In Vivo Anticancer Drug Screen. Data for tumor model P388 Leukemia (intraperitoneal) in CD2F1 (CDF1) mice. The conditions noted are these: endpoint: median survival time, higher = longer survival. A digest of the protocol: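 Mice carrying the transplanted tumor received test compound or vehicle. Survival was recorded in each group, and the value is the treated-group measurement divided by that of the vehicle-treated control group.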

[1] abbreviates: dose: 12.5 mg/kg/injection, schedule: Q01DX009 (ip), vehicle: saline.
Where [2] appears, read: dose: 25.0 mg/kg/injection, schedule: Q01DX009 (ip), vehicle: saline.
Where [3] appears, read: dose: 50.0 mg/kg/injection, schedule: Q01DX009 (ip), vehicle: saline with Tween-80.
[4] abbreviates: dose: 50.0 mg/kg/injection, schedule: Q01DX009 (ip), vehicle: saline.
Where [5] appears, read: dose: 50.0 mg/kg/injection, schedule: Q01DX005 (ip), vehicle: Klucel (hydroxypropylcellulose) (HPC).
The mark [6] stands for this setting: dose: 100.0 mg/kg/injection, schedule: Q01DX005 (ip), vehicle: Klucel (hydroxypropylcellulose) (HPC).
The mark [7] stands for this setting: dose: 200.0 mg/kg/injection, schedule: Q01DX005 (ip), vehicle: Klucel (hydroxypropylcellulose) (HPC).
Where [8] appears, read: dose: 100.0 mg/kg/injection, schedule: Q01DX009 (ip), vehicle: saline.
Setting [9] is: dose: 50.0 mg/kg/injection, schedule: Q01DX009 (ip), vehicle: Klucel (hydroxypropylcellulose) (HPC).
[10] abbreviates: dose: 100.0 mg/kg/injection, schedule: Q01DX009 (ip), vehicle: Klucel (hydroxypropylcellulose) (HPC).
Setting [11] is: dose: 200.0 mg/kg/injection, schedule: Q01DX009 (ip), vehicle: Klucel (hydroxypropylcellulose) (HPC).
[12] abbreviates: dose: 100.0 mg/kg/injection, schedule: Q04DX003 (ip), vehicle: saline with Tween-80.
The mark [13] stands for this setting: dose: 200.0 mg/kg/injection, schedule: Q04DX003 (ip), vehicle: saline with Tween-80.
The mark [14] stands for this setting: dose: 12.5 mg/kg/injection, schedule: Q01DX009 (ip), vehicle: saline with Tween-80.
[15] abbreviates: dose: 25.0 mg/kg/injection, schedule: Q01DX009 (ip), vehicle: saline with Tween-80.
[16] abbreviates: dose: 50.0 mg/kg/injection, schedule: Q01DX005 (ip), vehicle: saline.

Several values for one entry are separate records, joined by “and”; a condition that tells them apart may be missing. Equal entries are not always repeated. Toxic doses and inconclusive results are not listed.

As to `Oc1ccccc1-c1nc2c3ccccc3c3ccccc3c2[nH]1`, the T/C reads like this: (dose: 50.0 mg/kg/injection, schedule: Q01DX005 (ip), vehicle: saline with Tween-80) 113 % of control; (dose: 100.0 mg/kg/injection, schedule: Q01DX005 (ip), vehicle: saline with Tween-80) 111 % of control; (dose: 200.0 mg/kg/injection, schedule: Q01DX005 (ip), vehicle: saline with Tween-80) 113 % of control.
Turning to `OC1(c2nccc3ccccc23)CCN(CCc2ccccc2)CC1`, the T/C reads like this: under setting [1], 102 % of control; under setting [2], 97 % of control; under setting [3], 87 % of control; under setting [4], 108 % of control.
On to `CN(C)CCCNC(=S)C(=S)NCCCN(C)C`, for which the T/C by setting is: under setting [5], 97 % of control; under setting [6], 105 % of control.
Regarding `Clc1ccccc1C(Nc1nc2ccccc2s1)Nc1nc2ccccc2s1`, the T/C under setting [5] was 102 % of control, the T/C under setting [6] was 99 % of control and the T/C under setting [7] was 99 % of control.
For the compound `CCN(CCCN(C)C)c1ccc(/C=C/c2ccnc3ccccc23)cc1`, the T/C under setting [8] is 108 % of control.
On to `O=C1c2ccccc2CCCC12OC2c1ccncc1` (centres undefined), for which the T/C is, setting by setting: under setting [9], 90 % of control; under setting [10], 96 % of control; under setting [11], 90 % of control.
In the case of `COc1ccc(NC(=O)C(c2ccccc2)c2ccccc2)cc1`, the T/C under setting [12] is 90 % of control; the T/C under setting [13] was 95 % of control; the T/C (dose: 400.0 mg/kg/injection, schedule: Q04DX003 (ip), vehicle: saline with Tween-80) was 100 % of control.
Regarding `O=C1C2=C(C(=O)c3ncccc31)C1C=CC2CC1` (centres undefined), the T/C is 100 % of control (dose: 25.0 mg/kg/injection, schedule: Q01DX005 (ip), vehicle: DMSO); 100 % of control (dose: 50.0 mg/kg/injection, schedule: Q01DX005 (ip), vehicle: DMSO); 102 % of control (dose: 50.0 mg/kg/injection, schedule: Q01DX005 (ip), vehicle: Klucel + Tween-80); 104 % of control (dose: 100.0 mg/kg/injection, schedule: Q01DX005 (ip), vehicle: DMSO); 96 % of control (dose: 100.0 mg/kg/injection, schedule: Q01DX005 (ip), vehicle: Klucel + Tween-80).
Consider `CC(=O)N1C(=O)C2C3C=CC(C3)C2C(=O)N1C(C)=O` (centres undefined), for which the T/C by setting is: (dose: 6.25 mg/kg/injection, schedule: Q01DX009 (ip), vehicle: saline with Tween-80) 96 % of control; under setting [14], 97 % of control; under setting [15], 102 % of control; under setting [3], 106 % of control and 86 % of control.
Turning to `C[C@@H]1C[C@H](C)OC(CCl)O1` (some centres undefined), the T/C (dose: 60.0 mg/kg/injection, schedule: Q01DX005 (ip), vehicle: saline) was 100 % of control; the T/C (dose: 120.0 mg/kg/injection, schedule: Q01DX005 (ip), vehicle: saline) was 102 % of control; the T/C (dose: 240.0 mg/kg/injection, schedule: Q01DX005 (ip), vehicle: saline) was 98 % of control.
As for `CCOP(=S)(Nc1ccc(F)cc1F)OCC`, the T/C (dose: 100.0 mg/kg/injection, schedule: Q04DX002 (ip), vehicle: saline with Tween-80) is 113 % of control and the T/C (dose: 200.0 mg/kg/injection, schedule: Q04DX002 (ip), vehicle: saline with Tween-80) is 95 % of control.
In the case of `Cc1cc(N)c(C)c([N+](=O)[O-])c1`, the T/C was 95 % of control (dose: 50.0 mg/kg/injection, schedule: Q04DX003 (ip), vehicle: saline with Tween-80); 91 % of control under setting [12]; 100 % of control under setting [13].
`Nc1nnnn1CCCCO`: the T/C by setting is: under setting [16], 104 % of control; (dose: 100.0 mg/kg/injection, schedule: Q01DX005 (ip), vehicle: saline) 103 % of control; (dose: 200.0 mg/kg/injection, schedule: Q01DX005 (ip), vehicle: saline) 111 % of control; (dose: 400.0 mg/kg/injection, schedule: Q01DX005 (ip), vehicle: saline) 120 % of control.
On to `Cc1nc2c([N+](=O)[O-])cccc2c2ccccc12`, for which the T/C (dose: 100.0 mg/kg/injection, schedule: Q04DX002 (ip), vehicle: Klucel (hydroxypropylcellulose) (HPC)) is 94 % of control; the T/C (dose: 200.0 mg/kg/injection, schedule: Q04DX002 (ip), vehicle: Klucel (hydroxypropylcellulose) (HPC)) was 89 % of control; the T/C (dose: 400.0 mg/kg/injection, schedule: Q04DX002 (ip), vehicle: Klucel (hydroxypropylcellulose) (HPC)) was 98 % of control.
For `COc1cc2c(cc1OCc1ccccc1)C(Cc1cc(Br)sc1Br)N(C(C)=O)CC2` (centres undefined), the T/C by setting is: (dose: 63.0 mg/kg/injection, schedule: Q01DX001 (ip), vehicle: Klucel (hydroxypropylcellulose) (HPC)) 97 % of control; (dose: 126.0 mg/kg/injection, schedule: Q01DX001 (ip), vehicle: Klucel (hydroxypropylcellulose) (HPC)) 101 % of control; (dose: 252.0 mg/kg/injection, schedule: Q01DX001 (ip), vehicle: Klucel (hydroxypropylcellulose) (HPC)) 109 % of control.
As for `O=C1c2ccccc2C(=O)N1OCc1cccc(C(F)(F)F)c1`, the T/C was 98 % of control under setting [5], 90 % of control under setting [6] and 86 % of control under setting [7].
As for `CCOC(=O)NN(C(=O)OCC)C(C(C)=O)c1ccccc1` (centres undefined), the T/C by setting is: (dose: 60.0 mg/kg/injection, schedule: Q01DX005 (ip), vehicle: Klucel (hydroxypropylcellulose) (HPC)) 105 % of control; (dose: 120.0 mg/kg/injection, schedule: Q01DX005 (ip), vehicle: Klucel (hydroxypropylcellulose) (HPC)) 103 % of control; (dose: 240.0 mg/kg/injection, schedule: Q01DX005 (ip), vehicle: Klucel (hydroxypropylcellulose) (HPC)) 103 % of control.
Regarding `Cc1cc[n+](C2C(=O)c3ccccc3C(=O)C2Nc2cc(Cl)ccc2Cl)cc1` (centres undefined), the T/C is 106 % of control (dose: 60.0 mg/kg/injection, schedule: Q01DX005 (ip), vehicle: saline with Tween-80); 108 % of control (dose: 120.0 mg/kg/injection, schedule: Q01DX005 (ip), vehicle: saline with Tween-80); 105 % of control (dose: 240.0 mg/kg/injection, schedule: Q01DX005 (ip), vehicle: saline with Tween-80).
Regarding `COC1CCC2=C(C1)C(=O)CC1c3ccccc3CN21` (centres undefined), the T/C runs as follows: under setting [14], 100 % of control; under setting [15], 100 % of control; under setting [3], 100 % of control.
For `CCCCCC(CN(C)C)C(=O)/C=C/c1ccc(Cl)c(Cl)c1` (centres undefined), the T/C is, setting by setting: (dose: 1.56 mg/kg/injection, schedule: Q01DX009 (ip), vehicle: saline) 100 % of control; (dose: 3.12 mg/kg/injection, schedule: Q01DX009 (ip), vehicle: saline) 100 % of control; (dose: 6.25 mg/kg/injection, schedule: Q01DX009 (ip), vehicle: saline) 102 % of control; under setting [1], 109 % of control; under setting [2], 92 % of control.
On to `CCc1ncnc2cc(OCC3CO3)c(OC)cc12` (centres undefined), for which the T/C by setting is: (dose: 6.25 mg/kg/injection, schedule: Q01DX005 (ip), vehicle: saline) 114 % of control; (dose: 25.0 mg/kg/injection, schedule: Q01DX005 (ip), vehicle: saline) 155 % of control and 158 % of control; under setting [16], 154 % of control and 158 % of control and 182 % of control.
For the compound `COc1cccc(C(=O)OCCC(C)C)c1O`, the T/C was 110 % of control under setting [4]; 110 % of control and 92 % of control under setting [8]; 104 % of control and 117 % of control (dose: 200.0 mg/kg/injection, schedule: Q01DX009 (ip), vehicle: saline).
Take `O=C(NNc1nc(CCl)cs1)c1ccccc1Cl`: the T/C runs as follows: (dose: 12.5 mg/kg/injection, schedule: Q01DX009 (ip), vehicle: Klucel (hydroxypropylcellulose) (HPC)) 106 % of control; (dose: 25.0 mg/kg/injection, schedule: Q01DX009 (ip), vehicle: Klucel (hydroxypropylcellulose) (HPC)) 103 % of control and 111 % of control; under setting [9], 103 % of control and 113 % of control; under setting [10], 103 % of control and 107 % of control; under setting [11], 94 % of control.
Consider `Cc1cccc2c(=O)[nH]c(=O)[nH]c12`, for which the T/C under setting [5] is 93 % of control, the T/C under setting [6] was 89 % of control and the T/C under setting [7] is 89 % of control.
For the compound `CC([NH-])C[NH-].O=C(O)CC(=O)O.[Pt+2]`, the T/C is 153 % of control and 158 % of control (dose: 25.0 mg/kg/injection, schedule: Q04DX002 (ip), vehicle: saline with Tween-80); 179 % of control and 183 % of control (dose: 50.0 mg/kg/injection, schedule: Q04DX002 (ip), vehicle: saline with Tween-80).

Source of the values: PubChem BioAssay AID330 (DTP/NCI, 2004).
